The record followed here is ChEMBL document CHEMBL1201862, “PubChem BioAssay data set” (2004).

Experiment [1] has as its target T1, Short transient receptor potential channel 4 (Mus musculus, UniProt Q9QUQ5).
T1 sequence (Q9QUQ5 whole entry): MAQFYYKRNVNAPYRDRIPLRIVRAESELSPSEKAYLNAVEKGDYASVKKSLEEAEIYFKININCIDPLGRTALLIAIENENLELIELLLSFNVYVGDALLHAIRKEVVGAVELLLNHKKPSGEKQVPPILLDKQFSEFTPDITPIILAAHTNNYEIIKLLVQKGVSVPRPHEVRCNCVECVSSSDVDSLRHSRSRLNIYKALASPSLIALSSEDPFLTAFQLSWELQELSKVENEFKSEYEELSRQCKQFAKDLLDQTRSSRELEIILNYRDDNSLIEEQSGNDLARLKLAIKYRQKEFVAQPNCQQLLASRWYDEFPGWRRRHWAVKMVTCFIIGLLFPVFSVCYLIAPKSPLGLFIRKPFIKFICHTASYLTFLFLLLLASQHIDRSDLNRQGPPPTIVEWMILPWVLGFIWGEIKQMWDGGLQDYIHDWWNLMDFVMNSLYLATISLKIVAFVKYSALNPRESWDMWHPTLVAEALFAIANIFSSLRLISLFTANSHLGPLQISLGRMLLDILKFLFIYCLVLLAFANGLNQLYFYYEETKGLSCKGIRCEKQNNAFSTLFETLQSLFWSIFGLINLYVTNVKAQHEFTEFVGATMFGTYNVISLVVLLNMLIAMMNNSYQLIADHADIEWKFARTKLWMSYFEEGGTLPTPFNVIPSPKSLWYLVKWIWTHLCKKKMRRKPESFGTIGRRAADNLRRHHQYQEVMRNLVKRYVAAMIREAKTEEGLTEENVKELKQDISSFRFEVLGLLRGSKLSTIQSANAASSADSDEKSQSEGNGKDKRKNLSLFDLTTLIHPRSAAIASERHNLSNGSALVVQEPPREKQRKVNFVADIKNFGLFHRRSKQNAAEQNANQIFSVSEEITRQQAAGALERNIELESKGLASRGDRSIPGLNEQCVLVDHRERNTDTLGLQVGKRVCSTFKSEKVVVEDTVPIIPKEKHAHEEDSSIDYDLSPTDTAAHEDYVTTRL
Description: SAR Analysis for the identification of selective inhibits of the transient receptor potential cation channel C4 (TRPC4): Automated Electrophysiology. [Related pubchem assays (depositor defined):AID2256]. The format is functional.

Experiment [2] has as its target T1, Short transient receptor potential channel 4. As to the kind of experiment: SAR Analysis for the identification of selective inhibitors of the transient receptor potential cation channel C4 (TRPC4): TRPC4 Serotonin Receptor CRC MPD assay. [Related pubchem assays (depositor defined):AID2247, AID2256]. The format is functional.
Experiment [3] shares this target. Description: mouse TRPC4 block via Gq-coupled stimulation – cell-based, acetylcholine stimulus, HEK293 TRPC4, Fluo-4, SAR follow-up (AID 492996). The class given is functional.
The target is the same in experiment [4]. Description: block of DAMGO-driven TRPC4 calcium entry – cell-based, HEK293 TRPC4/mu-opioid, Fluo-4 calcium, dose response (AID 434942).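 Note: potency of inhibitors blocking the TRPC4 calcium response.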 The class given is functional.
Experiment [5] has the same target. As to the kind of experiment: potency of mouse TRPC4 calcium flux blockers – cell-based, HEK293 TRPC4/mu-opioid, DAMGO stimulus, Fluo-4, dose response (AID 492994). The format is functional.
The subject of experiment [6] is A-375. Description: MITF: Counter assay: A375 proliferation Measured in Cell-Based System Using Plate Reader - 2084-03_Inhibitor_Dose_DryPowder_Activity. [Related pubchem assays (depositor defined):AID488944]. The format is functional. The following applies: Homo sapiens.
The test system of experiment [7] is A-375. Description: proliferation inhibition in MITF-low A375 cells – cell-based, cherry-pick samples, set 2, counter-screen for MITF modulator project, dose response (AID 540335). The following applies: Homo sapiens. The format is functional.
Experiment [8] in a line: viability of PTEN-deleted HCT116 cells – cell-based, HCT116 PTEN knockout, dose response (AID 1047).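 Note: HCT116 colon tumor cells with PTEN knocked out; cells exposed to compound for 60 hours before readout; potency for loss of cell viability measured by luminescence.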 The class given is functional.
The nature of experiment [9]: viability of HCT116 lacking mutant beta-catenin – cell-based, human colon tumor, dose response (AID 1045).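 Note: HCT116 colon tumor cells with beta catenin knocked out; cells exposed to compound for 60 hours.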 The class given is functional.
In experiment [10] the test system is Escherichia coli. As to the kind of experiment: microbe, parasite or virus in culture.
The target in experiment [11] is T2, Heat shock factor protein 1 (Mus musculus, UniProt P38532).
T2 sequence (P38532 whole entry): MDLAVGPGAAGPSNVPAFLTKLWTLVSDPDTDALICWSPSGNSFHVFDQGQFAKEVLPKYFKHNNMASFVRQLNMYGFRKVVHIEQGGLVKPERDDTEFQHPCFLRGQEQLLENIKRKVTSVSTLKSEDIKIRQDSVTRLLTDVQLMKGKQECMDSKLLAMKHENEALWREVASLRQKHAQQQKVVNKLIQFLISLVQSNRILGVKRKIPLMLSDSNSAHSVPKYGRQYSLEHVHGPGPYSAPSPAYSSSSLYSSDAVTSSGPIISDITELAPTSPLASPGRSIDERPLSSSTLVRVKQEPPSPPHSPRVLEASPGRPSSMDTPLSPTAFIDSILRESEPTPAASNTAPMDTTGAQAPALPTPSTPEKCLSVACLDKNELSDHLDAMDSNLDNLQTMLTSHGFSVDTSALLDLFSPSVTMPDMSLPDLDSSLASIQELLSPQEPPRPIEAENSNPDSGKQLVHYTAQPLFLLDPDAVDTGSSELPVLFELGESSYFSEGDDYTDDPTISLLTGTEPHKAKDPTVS
Description: decrease of HSF1-responsive luciferase luminescence – cell-based, NIH3T3, dose retest, confirmation (AID 2382).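 Note: NIH3T3 fibroblasts with HSF1-driven luciferase reporter stressed by proteasome inhibitor MG132; luminescence from HSF1-driven luciferase expression after 8 hours of MG132 stress.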 The format is functional.

Experiment [12] concerns HEK293. Description: SAR Analysis of small molecule inhibitors of T-cell specific antigen receptor-induced NF-kB activation in a HEK-293T cell line using a luminescence assay - Set 2. [Related pubchem assays (depositor defined):AID435003, AID435012, AID489026]. The format is functional, cell-based. The note with it: Homo sapiens.
For experiment [13], the system named is HEK293. Description: HEK293T cell viability loss, resazurin readout – resazurin fluorescence, cytotoxicity control for NF-kB activator project, SAR follow-up (AID 493251). The following applies: Homo sapiens. The class given is functional, cell-based.
In experiment [14] the test system is Jurkat. As to the kind of experiment: SAR Analysis of small molecule inhibitors of T-cell specific antigen receptor-induced NF-kB activation in a Jurkat cell line using a luminescence assay - Set 2. [Related pubchem assays (depositor defined):AID435003, AID435012, AID465]. The format is functional, cell-based. The following applies: Homo sapiens.

SMILES strings stand for the structures. Activity calls are given as the source filed them.

Take `Cc1cc(N2CCCCC2)nc2ccccc12`: the IC50 in experiment [1] was 2.63 µM (active); in [2], 2.24 µM (active); in [3], 1.23 µM (active); in experiment [5] it was 0.82 µM (active). In addition, the EC50 in experiment [4] is 0.0027 µM (active).

`CN(C)CCNC(=O)/C(=C/c1ccc(-c2ccc(Cl)cc2)o1)NC(=O)c1ccccc1`: the AC50 in [6] and in [7] was > 11 µM (active) throughout. Also, the EC50 in [8] was 10.9 µM (active); in experiment [9], 9.77 µM (active).

As to `CCn1ccnc1CN(C)C(=O)c1cc(COc2ccc(Cl)cc2OC)on1`, in [10], the AC50 is 160 µM (active). Moreover, in experiment [11], the EC50 is > 195 µM (not active).

As for `COc1ccc(C(NC(=O)CCc2ccccc2)c2ccc3cccnc3c2O)cc1` (centres undefined), the IC50 in experiment [12] is 2.3 µM (active); in experiment [13], 22.5 µM (inactive); in experiment [14], 2.52 µM (active).
